# Experiments:
# [1] = tested on: lens; assay: Pharmacological Test 1: lens elasticity after instillation of EV06; assay type: in vivo, C57BL/6J mice; details: all of the 0.5%, 1.5% and 5% groups compared with vehicle control group
# Description: The effect of lipoic acid choline ester (EV06) on the lens elasticity was examined. The tests were conducted with reference to the methods described in InvestOphthalmol Vis Sci, 57, 2851-2863, 2016. EV06 is a compound represented by the following formula (2): A vehicle comprising 0.1% (w/v) of ethyl pyruvate, 0.269% (w/v) of sodium dihydrogenphosphate monohydrate (NaH2PO4H2O), 0.433% (w/v) of disodium hydrogenphosphate ([…]), 0.2% (w/v) of hydroxypropyl methylcellulose, and 0.5% (w/v) of NaCl was prepared. EV06 was sonicated with the addition of the vehicle to prepare a 5% (w/v) suspension. The resulting 5% (w/v) suspension was diluted with the vehicle to prepare a 1.5% (w/v) solution. Further, the resulting 1.5% (w/v) solution was diluted with the vehicle to prepare a 0.5% (w/v) solution. The total amount of each sample to be used in one day was prepared before use. […] 4) The lens was placed on a glass slide, and an all-in-one fluorescence microscope BZ-9000 (Keyence) was used to capture an image of the lens (Image a). […] 6) A change in the lens diameter was calculated from Equation 1 wherein the lens diameter of Image a is subtracted from the lens diameter of Image b, as described below. Then, the lens elasticity improvement of each sample group compared with the vehicle control group was calculated from Equation 2 described below. […]
# [2] = tested on: lens; assay: Pharmacological Test 2: lens elasticity after instillation of sodium ursodeoxycholate; assay type: in vivo, C57BL/6J mice; details: 1.5% (w/v) sample, 2.5 μL/eye, 3 times per day, 12 to 15 days, vs vehicle control
# Description: A vehicle comprising 0.1% (w/v) of ethyl pyruvate, 0.269% (w/v) of sodium dihydrogenphosphate monohydrate (NaH2PO4H2O), 0.433% (w/v) of disodium hydrogenphosphate (Na2HPO4), 0.2% (w/v) of hydroxypropyl methylcellulose, 0.5% (w/v) of NaCl was prepared. Sodium ursodeoxycholate was sonicated with the addition of the vehicle to prepare a 1.5% (w/v) suspension. The resulting 1.5% (w/v) suspension was diluted with the vehicle to prepare a 0.5% (w/v) suspension. Further, the resulting 0.5% (w/v) suspension was diluted with the vehicle to prepare a 0.15% (w/v) suspension. The total amount of each sample to be used in one day was prepared before use. EV06 was sonicated with the addition of the vehicle to prepare a 1.5% (w/v) solution. The total amount of the sample to be used in one day was prepared before use. 1) Each test sample (2.5 μL/eye) was instilled into the right eye of 8-month-old C57BL/6J mice with a Pipetman 3 times per day (around 9:00, 13:00 and 17:00) for 12 to 15 days. 2) After the final instillation, the mice were euthanized by carbon dioxide inhalation, and then the eyeballs were extracted and rinsed with Hank's balanced salt solution (HBSS)). 3) The sclera near the optic nerve was cut with a razor, the lens was removed through the incision, and the removed lens was immersed in HBSS. 4) The lens was placed on a glass slide, and an all-in-one fluorescence microscope BZ-9000 (Keyence) was used to capture an image of the lens (Image a). 5) Next, one cover glass (Corning^(registered trade mark) 22×22 mm Square) was placed on the lens, and an image in which the thickness of the lens changed due to the weight was similarly captured (Image b). 6) A change in the lens diameter was calculated from Equation 1 wherein the lens diameter of Image a is subtracted from the lens diameter of Image b, as described below. Then, the lens elasticity improvement of each sample group compared with the vehicle control group was calculated from Equation 2 described below. The mean of the vehicle control group was based on 5 eyes, the mean of each sodium ursodeoxycholate sample group was based on 10 eyes, and the mean of the EV06 sample group was based on 10 eyes. Change in lens diameter Lens diameter in image b of each test sample−Lens diameter in Image a of each test sample (Equation 1) Lens elasticity improvement of each sample group=Mean change in lens diameter of each Test sample group−Mean change in lens diameter of Vehicle control group (Equation 2)
# [3] = tested on: anterior segment of the eye; assay: Ocular Irritation Test (McDonald-Shadduck method, lens observation, histopathology); assay type: in vivo, Japanese White rabbits
# Description: A vehicle (aqueous solution) comprising 0.1% (w/v) of ethyl pyruvate, 0.269% (w/v) of sodium dihydrogenphosphate monohydrate ([…]), 0.433% (w/v) of disodium hydrogenphosphate (Na2HPO4), 0.2% (w/v) of hydroxypropyl methylcellulose, 0.5% (w/v) of NaCl was prepared.
# Group treated with an ophthalmic suspension of ursodeoxycholic acid 1% (w/v), 3% (w/v), and 10% (w/v) ursodeoxycholic acid ophthalmic suspensions were prepared in the same manner as in the above pharmacological tests. These ophthalmic suspensions and the vehicle were each instilled into the left eye of Japanese White rabbits at a dose of 50 μL/eye with pipette twice per day at a 6-hour interval for 2 weeks. One hour after the final instillation, ocular irritation of anterior segment of the eye was evaluated according to the McDonald-Shadduck method, and the lens was observed. The contralateral eye was untreated.
# The ocular irritation of anterior segment of the eye was scored according to the following criteria:
# +1: mild; +2: moderate; +3: severe.
# [4] = after 2 week-repeated instillation of 1%, 3%, 10% ophthalmic suspensions
SMILES,"Lens diameter / elasticity improving effect, in words [1]",Lens elasticity improvement [2] [μm],"Histopathological examination of the eyes, in words [3, 4]","Observation of ocular irritation of anterior segment of the eye and lens observation, in words [3, 4]","Safety of the ophthalmic suspensions, in words ([3]; rabbit, in vivo)"
"C[N+](C)(C)CCOC(=O)CCCC[C@@H]1CCSS1 [EV06, lipoic acid choline ester]",increased lens diameter,38.2,,,
"C[C@H](CCC(=O)O)[C@H]1CC[C@H]2[C@@H]3[C@@H](O)C[C@@H]4C[C@H](O)CC[C@]4(C)[C@H]3CC[C@]12C [ursodeoxycholic acid, 3α,7β-Dihydroxy-5β-cholan-24-oic acid]",,,no abnormal findings,no abnormal findings,highly safe
